In PMC9686657, “Protection against Oxidative Stress and Metabolic Alterations by Synthetic Peptides Derived from Erythrina edulis Seed Protein” (Antioxidants, 2022):
Where two headings read alike, the source gives them in different places. Ends that are not written are not given here. Peptide text beside a SMILES is read from it.

Columns and labels:
[1] = tested on: SH-SY5Y cells; experiment: Cell viability, MTT assay; assay type: cell-based, human; details: basal conditions, highest concentration 100 µM, 24 h; data not shown
Procedure: Human neuroblastoma SH-SY5Y cells were obtained from the American Type Culture Collection (ATCC, […], Rockville, MD, USA) and grown in RPMI-1640 medium supplemented with 10% FBS, 2 mM L-glutamine, 1 mM sodium pyruvate, 1 mM NEAA, and 50 μg/mL gentamicin in a humidified incubator containing 5% CO2 and 95% air at 37 °C.
The effects of pajuro-derived peptides on cell viability were determined using the MTT assay, following the protocol previously described by Palma-Albino et al.. SH-SY5Y cells were seeded (2 × 10^4 cells/well) onto 96-well plates in complete medium with 1% FBS and incubated at 37 °C for 16 h. After discarding the culture medium, the peptide sample was added (at concentration of 10, 25, and 100 µM), and the plate was incubated for 24 h. Upon removing the supernatant, a MTT solution (2 mg/mL) was added, and the plate was incubated for 60 min at 37 °C. After this time, the supernatant was discarded, and the formazan crystals were dissolved in dimetilsulfoxide (DMSO). The absorbance was measured at 570 nm in the Infinite M200 Pro plate reader (Tecan Group AG). Three independent runs were performed for each sample. The results were expressed as percentage of the control, considered as 100%.

[2] = biological target: T1, ACE from rabbit lung (Oryctolagus cuniculus, UniProt P12822); experiment: ACE inhibitory activity (HHL substrate); assay type: biochemical; details: n.d. = activity not detected; mean ± SD; read-out: ACE Inhibition (IC50)
T1 construct: ACE from rabbit lung; purchased Sigma-Aldrich; host or cells: rabbit lung tissue
T1 sequence (P12822 34-1310): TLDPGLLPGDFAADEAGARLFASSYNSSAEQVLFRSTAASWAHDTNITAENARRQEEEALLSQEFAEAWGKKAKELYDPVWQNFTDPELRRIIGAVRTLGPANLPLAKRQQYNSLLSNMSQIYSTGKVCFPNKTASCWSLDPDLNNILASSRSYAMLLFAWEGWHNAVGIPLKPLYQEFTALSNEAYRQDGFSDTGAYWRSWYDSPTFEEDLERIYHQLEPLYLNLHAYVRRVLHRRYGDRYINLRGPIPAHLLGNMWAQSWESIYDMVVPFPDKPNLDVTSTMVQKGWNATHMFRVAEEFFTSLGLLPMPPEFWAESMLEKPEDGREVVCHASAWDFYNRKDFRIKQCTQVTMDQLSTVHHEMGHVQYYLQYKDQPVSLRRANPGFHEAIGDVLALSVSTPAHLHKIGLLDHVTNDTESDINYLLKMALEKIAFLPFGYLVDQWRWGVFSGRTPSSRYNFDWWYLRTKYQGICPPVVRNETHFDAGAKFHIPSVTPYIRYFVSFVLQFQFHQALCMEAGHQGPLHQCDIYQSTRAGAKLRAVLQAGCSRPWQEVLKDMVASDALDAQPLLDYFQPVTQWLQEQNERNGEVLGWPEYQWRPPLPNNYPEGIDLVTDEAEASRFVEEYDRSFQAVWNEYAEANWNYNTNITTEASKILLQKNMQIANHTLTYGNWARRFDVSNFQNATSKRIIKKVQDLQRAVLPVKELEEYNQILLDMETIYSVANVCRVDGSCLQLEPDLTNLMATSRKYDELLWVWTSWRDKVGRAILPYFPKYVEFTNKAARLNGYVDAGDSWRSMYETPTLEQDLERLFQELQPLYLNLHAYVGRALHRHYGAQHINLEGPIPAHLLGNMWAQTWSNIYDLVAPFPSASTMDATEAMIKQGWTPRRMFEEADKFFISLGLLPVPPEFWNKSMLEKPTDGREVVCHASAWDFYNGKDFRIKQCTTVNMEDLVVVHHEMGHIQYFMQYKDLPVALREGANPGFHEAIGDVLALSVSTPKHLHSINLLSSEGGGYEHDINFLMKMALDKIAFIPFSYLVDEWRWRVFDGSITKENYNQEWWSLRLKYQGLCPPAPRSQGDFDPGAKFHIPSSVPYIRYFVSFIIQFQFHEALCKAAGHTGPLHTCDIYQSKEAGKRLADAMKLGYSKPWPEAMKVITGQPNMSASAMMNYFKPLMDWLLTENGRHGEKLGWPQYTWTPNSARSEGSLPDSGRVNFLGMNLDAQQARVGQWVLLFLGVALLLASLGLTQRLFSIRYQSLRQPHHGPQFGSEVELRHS
Procedure: The in vitro ACE inhibitory activity of peptides was measured following the methodology described by Hayakari et al., with some modifications. […] It was incubated at 37 °C for 60 min. […] Three independent runs were performed for each sample.

[3] = biological target: T2, DPP-IV (Homo sapiens, UniProt P27487); details: literature value; cited from earlier work
T2 construct: purchased Sigma-Aldrich MAK203
T2 sequence (P27487 whole entry): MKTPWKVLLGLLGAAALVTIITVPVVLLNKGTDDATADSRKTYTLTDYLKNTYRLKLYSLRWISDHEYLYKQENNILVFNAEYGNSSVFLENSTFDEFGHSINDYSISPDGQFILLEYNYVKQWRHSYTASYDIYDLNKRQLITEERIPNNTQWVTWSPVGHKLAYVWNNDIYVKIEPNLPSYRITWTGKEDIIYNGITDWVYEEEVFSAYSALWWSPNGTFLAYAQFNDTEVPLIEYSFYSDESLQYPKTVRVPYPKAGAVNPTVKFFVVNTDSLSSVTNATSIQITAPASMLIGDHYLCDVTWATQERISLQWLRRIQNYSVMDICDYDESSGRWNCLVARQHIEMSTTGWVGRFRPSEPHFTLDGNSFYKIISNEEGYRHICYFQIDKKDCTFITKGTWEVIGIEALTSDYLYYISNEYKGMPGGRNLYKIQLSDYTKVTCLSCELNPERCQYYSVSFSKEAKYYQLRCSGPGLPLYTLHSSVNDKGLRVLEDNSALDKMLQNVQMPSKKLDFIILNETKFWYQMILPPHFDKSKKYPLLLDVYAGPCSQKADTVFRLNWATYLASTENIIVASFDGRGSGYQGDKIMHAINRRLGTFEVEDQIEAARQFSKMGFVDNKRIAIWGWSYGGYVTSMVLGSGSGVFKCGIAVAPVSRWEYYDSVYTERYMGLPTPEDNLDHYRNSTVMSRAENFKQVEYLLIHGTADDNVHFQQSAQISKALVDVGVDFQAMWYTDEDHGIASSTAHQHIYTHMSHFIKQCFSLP

[4] = biological target: T2, DPP-IV; experiment: DPP-IV inhibitory activity (Inhibitor Screening Kit MAK203); assay type: biochemical; details: n.d. = activity not detected; mean ± SD; read-out: DPP-IV Inhibition (IC50)
Procedure: The DPP-IV inhibitory activity was determined using the DPP-IV Inhibitor Screening Kit MAK203, according to the manufacturer’s instructions. […] After this time, the fluorescence was measured each 2 min at λexcitation and λemission of 360 and 460 nm, respectively, in the Infinite M200 Pro plate reader (Tecan Group AG). Three independent runs were performed for each sample. The results were expressed as IC50 value.

[5] = tested on: α-glucosidase from Saccharomyces cerevisiae; experiment: α-glucosidase inhibitory activity; assay type: biochemical; details: control acarbose at 10 mM
Procedure: The α-glucosidase inhibitory activity was determined as previously reported, with some modifications. […] Three independent runs were performed for each sample. The results were expressed as percentage of the negative control, considered as 100%.

[6] = tested on: T3, α-amylase type VI-B from porcine pancreas; experiment: α-amylase inhibition assay; assay type: biochemical; details: control acarbose at 10 mM
T3 construct: α-amylase type VI-B from porcine pancreas; purchased Sigma-Aldrich; host or cells: porcine pancreas tissue
Procedure: The α-amylase inhibition assay was carried out following the methods described by Subramanian et al. and Kumar et al., with some modifications. Then, 200 µL of mixture, containing α-amylase (800 mU), 0.125% starch, and peptide (100 µM) or standard (at different concentrations) in 0.1 M phosphate buffer (pH 6.9), was incubated at 37 °C for 30 min. After adding 100 µL of a solution containing 1% 3,5-dinitrosalicylic acid and 30% sodium potassium tartrate in 0.4 M NaOH, shaking, and incubating at 100 °C for 10 min, the absorbance was measured at 540 nm in an Infinite M200 Pro plate reader (Tecan Group AG). Three independent runs were performed for each sample. The results were expressed as percentage of the negative control, considered as 100%.

[7] = tested on: T4, porcine pancreatic lipase type II; experiment: Pancreatic lipase inhibitory activity; assay type: biochemical; details: control orlistat at 0.5 µM
T4 construct: porcine pancreatic lipase type II; purchased Sigma-Aldrich; host or cells: porcine pancreas tissue
Procedure: The pancreatic lipase inhibitory activity was determined following the protocols previously described, with some modifications. […] Three independent runs were performed for each sample. The results were expressed as percentage of the negative control, considered as 100%.

[8] = biological target: α-glucosidase; details: ref Vilcacundo et al. [46]; read-out: α-glucosidase inhibitory capacity (IC50); cited from earlier work

| IC50 [2] | IC50 [4] | Compound | effect on cell viability (cytotoxicity) [1] | also measured |
| --- | --- | --- | --- | --- |
| 82.6 ± 0.58 µM |  | DGLGYY [DGLGYY] | None of them, at the highest concentration assayed (100 µM), affected the cell viability |  |
|  |  | diprotin A |  | IC50 [3]: 24.7 µM |
|  |  | C[C@H]1O[C@H](O[C@H]2[C@H](O)[C@@H](O)[C@@H](O[C@H]3[C@H](O)[C@@H](O)C(O)O[C@@H]3CO)O[C@@H]2CO)[C@H](O)[C@@H](O)[C@@H]1N[C@H]1C=C(CO)[C@@H](O)[C@H](O)[C@H]1O (stereo partly shown) [acarbose] |  | α-Glucosidase Inhibition [5]: 62.36 ± 0.54%; α-Amylase Inhibition [6]: 75.05 ± 1.55% |
|  |  | CCCCCCCCCCC[C@@H](C[C@@H]1OC(=O)[C@H]1CCCCCC)OC(=O)[C@H](CC(C)C)NC=O [orlistat] |  | Pancreatic lipase Inhibition [7]: 94.62 ± 0.90% |
| 50.5 ± 0.95 µM |  | SQLPGW [SQLPGW] | None of them, at the highest concentration assayed (100 µM), affected the cell viability |  |
|  | 131 ± 2.34 µM | AALWE [AALWE] | None of them, at the highest concentration assayed (100 µM), affected the cell viability |  |
|  | 214 ± 2.83 µM | MFTGPY [MFTGPY] | None of them, at the highest concentration assayed (100 µM), affected the cell viability |  |
|  |  | IQAEGGLT |  | IC50 [8]: 110 µM |

| Compound | IC50 [2] | IC50 [4] | effect on cell viability (cytotoxicity) [1] | also measured |
| --- | --- | --- | --- | --- |
| N[C@@H](Cc1ccc(O)cc1)C(=O)N1CCC[C@H]1C(=O)N[C@@H](CO)C(=O)N[C@@H](Cc1ccc(O)cc1)C(=O)O [YPSY] (H-YPSY-OH; N-terminus and C-terminus assumed) | 115.6 ± 0.26 µM | 32.6 ± 1.6 µM | None of them, at the highest concentration assayed (100 µM), affected the cell viability |  |
